How the values were obtained:
[1] = biological target: T1, Carboxypeptidase A (Bos taurus, UniProt P00730); test: Carboxypeptidase A activity assay; assay type: biochemical; details: Ki class; compounds tested in 5% DMSO, 12 concentrations
T1 sequence (P00730 111-419): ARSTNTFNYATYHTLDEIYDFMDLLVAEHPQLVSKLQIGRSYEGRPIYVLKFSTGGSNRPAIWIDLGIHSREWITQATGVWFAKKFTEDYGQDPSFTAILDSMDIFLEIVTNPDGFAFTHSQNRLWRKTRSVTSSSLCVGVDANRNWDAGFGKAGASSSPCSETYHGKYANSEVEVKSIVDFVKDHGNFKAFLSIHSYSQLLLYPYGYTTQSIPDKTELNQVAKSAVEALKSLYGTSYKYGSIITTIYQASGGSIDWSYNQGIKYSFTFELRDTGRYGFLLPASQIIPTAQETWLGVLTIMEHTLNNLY
Outline: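 Bovine carboxypeptidase A activity followed at 328 nm in 5% DMSO, reaction stopped with EDTA. Activity measured at 12 compound concentrations. Ki derived from apparent Ki as Ki=Kiapp/(1+[S]/Km).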

[2] = biological target: T2, ACE-2 (Homo sapiens, UniProt Q9BYF1); test: ACE-2 Competitive Substrate Assay (ACS Assay); assay type: biochemical; details: Ki class; compounds tested in 5% DMSO, 12 concentrations; read-out: Human ACE-2 Activity
T2 construct: a stop codon inserted after the serine immediately preceding the transmembrane domain; made in house; host or cells: CHO K1 cells (transient transfection, purified from conditioned medium)

[3] = biological target: T3, ACE (Sigma, A2580) (Sus scrofa, UniProt F1RRW5); test: ACE enzymatic activity assay; assay type: biochemical, porcine; details: Ki class; compounds tested in 5% DMSO, 12 concentrations
T3 construct: ACE from porcine kidney; purchased Sigma A2580; host or cells: porcine kidney
T3 sequence (F1RRW5 34-1309): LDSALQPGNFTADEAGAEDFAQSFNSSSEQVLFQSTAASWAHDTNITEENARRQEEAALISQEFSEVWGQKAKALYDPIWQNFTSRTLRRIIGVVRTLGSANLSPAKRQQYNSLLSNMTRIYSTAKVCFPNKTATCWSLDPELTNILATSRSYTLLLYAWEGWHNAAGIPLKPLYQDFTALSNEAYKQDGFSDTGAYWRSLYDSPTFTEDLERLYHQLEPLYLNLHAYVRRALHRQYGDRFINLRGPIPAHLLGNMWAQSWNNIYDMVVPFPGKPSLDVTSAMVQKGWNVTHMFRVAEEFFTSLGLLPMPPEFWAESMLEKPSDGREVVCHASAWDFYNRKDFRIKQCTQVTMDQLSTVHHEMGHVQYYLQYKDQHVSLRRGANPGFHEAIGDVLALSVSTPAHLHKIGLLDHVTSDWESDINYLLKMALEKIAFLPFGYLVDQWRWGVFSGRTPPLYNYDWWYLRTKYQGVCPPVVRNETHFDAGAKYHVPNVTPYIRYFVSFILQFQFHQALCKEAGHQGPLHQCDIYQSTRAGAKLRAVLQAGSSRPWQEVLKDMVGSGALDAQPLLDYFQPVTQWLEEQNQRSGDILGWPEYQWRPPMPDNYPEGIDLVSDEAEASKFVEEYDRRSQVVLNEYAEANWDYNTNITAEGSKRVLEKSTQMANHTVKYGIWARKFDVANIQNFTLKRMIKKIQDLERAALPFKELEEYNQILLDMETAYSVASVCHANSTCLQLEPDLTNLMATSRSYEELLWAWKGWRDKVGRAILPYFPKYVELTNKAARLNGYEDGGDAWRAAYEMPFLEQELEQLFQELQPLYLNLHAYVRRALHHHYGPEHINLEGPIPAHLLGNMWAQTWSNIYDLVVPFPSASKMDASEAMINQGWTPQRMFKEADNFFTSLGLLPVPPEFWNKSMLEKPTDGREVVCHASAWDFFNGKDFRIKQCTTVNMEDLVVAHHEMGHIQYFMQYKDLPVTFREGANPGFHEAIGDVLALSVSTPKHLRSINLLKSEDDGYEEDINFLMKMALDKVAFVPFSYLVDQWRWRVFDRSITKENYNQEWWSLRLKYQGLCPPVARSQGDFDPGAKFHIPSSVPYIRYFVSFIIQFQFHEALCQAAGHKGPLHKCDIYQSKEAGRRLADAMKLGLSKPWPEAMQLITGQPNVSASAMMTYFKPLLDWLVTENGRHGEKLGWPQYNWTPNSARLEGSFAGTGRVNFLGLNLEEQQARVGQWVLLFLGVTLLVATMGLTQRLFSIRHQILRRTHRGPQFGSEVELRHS
Outline: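 ACE (1 nM final) in 50 mM HEPES, 300 mM NaCl, 0.01% Brij-35, pH 7.5, with compound in 5% DMSO at 12 concentrations, 25 °C. Substrate cleavage run ~30 min, stopped with EDTA; fluorescence read at excitation 320 nm, emission 405 nm.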

[4] = biological target: ACE-2 (Rattus norvegicus, UniProt Q5EGZ1); test: ACE-2 Competitive Substrate Assay, rat ACE-2; assay type: biochemical; details: Ki class; compounds tested in 5% DMSO, 12 concentrations
[5] = Effect on appetite: food consumption in ICR mice; details: 3 mg/kg oral
[6] = tested on: COc1ccc2c(CC(=O)N[C@@H](C)C(=O)N3CCC[C@H]3C(=O)N[C@@H](CCCCNc3ccc([N+](=O)[O-])cc3[N+](=O)[O-])C(=O)O)cc(=O)oc2c1; test: purified protein, by the assay type; details: other: fluorogenic substrate of ACE-2, pH 6.5, 25° C.
Procedure: (§1) ACE-2 enzymatic activity was assayed in microtitre plates by the following procedure. The ACE-2 assay buffer used contained 50 mM MES (Boehringer-Mannheim), 300 mM NaCl (Sigma) and 0.01% Brij-35 (Pierce Chemical Co.) at pH 6.5.
(§2) Reactions were mixed and incubated at 25° C.

[7] = tested on: COc1ccc2c(CC(=O)N[C@@H](Cc3ccc(O)cc3)C(=O)N[C@H](C(=O)N[C@@H](C)C(=O)N[C@@H](CC(=O)O)C(=O)N[C@@H](C)C(=O)N3CCC[C@H]3C(=O)N[C@@H](CCCCNc3ccc([N+](=O)[O-])cc3[N+](=O)[O-])C(=O)O)C(C)C)cc(=O)oc2c1; test: purified protein, by the assay type; details: other: fluorogenic substrate of ACE-2, pH 6.5, 25° C.
Procedure: as §1, §2

ACE-2 (Rattus norvegicus, UniProt Q5EGZ1), sequence (Q5EGZ1 18-805): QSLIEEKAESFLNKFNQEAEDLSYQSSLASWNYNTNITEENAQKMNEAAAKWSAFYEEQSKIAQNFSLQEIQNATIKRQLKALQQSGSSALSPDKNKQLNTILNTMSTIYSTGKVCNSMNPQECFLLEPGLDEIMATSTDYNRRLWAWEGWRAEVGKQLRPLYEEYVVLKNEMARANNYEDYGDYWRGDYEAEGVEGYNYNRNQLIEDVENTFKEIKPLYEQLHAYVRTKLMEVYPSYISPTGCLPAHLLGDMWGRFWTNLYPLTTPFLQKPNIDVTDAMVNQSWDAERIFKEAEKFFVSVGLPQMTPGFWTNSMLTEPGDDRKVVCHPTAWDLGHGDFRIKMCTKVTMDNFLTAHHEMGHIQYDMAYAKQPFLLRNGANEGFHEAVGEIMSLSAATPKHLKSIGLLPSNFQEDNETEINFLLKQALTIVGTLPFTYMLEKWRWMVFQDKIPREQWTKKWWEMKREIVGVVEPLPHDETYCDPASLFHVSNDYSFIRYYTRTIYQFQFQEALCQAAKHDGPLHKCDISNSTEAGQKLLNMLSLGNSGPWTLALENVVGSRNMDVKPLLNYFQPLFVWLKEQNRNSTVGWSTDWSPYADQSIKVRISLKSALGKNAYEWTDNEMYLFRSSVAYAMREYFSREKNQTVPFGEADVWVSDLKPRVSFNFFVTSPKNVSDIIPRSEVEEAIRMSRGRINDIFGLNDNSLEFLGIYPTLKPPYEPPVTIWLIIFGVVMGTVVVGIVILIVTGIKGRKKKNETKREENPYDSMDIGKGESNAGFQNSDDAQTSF
T2 sequence (Q9BYF1 18-740 limits assumed): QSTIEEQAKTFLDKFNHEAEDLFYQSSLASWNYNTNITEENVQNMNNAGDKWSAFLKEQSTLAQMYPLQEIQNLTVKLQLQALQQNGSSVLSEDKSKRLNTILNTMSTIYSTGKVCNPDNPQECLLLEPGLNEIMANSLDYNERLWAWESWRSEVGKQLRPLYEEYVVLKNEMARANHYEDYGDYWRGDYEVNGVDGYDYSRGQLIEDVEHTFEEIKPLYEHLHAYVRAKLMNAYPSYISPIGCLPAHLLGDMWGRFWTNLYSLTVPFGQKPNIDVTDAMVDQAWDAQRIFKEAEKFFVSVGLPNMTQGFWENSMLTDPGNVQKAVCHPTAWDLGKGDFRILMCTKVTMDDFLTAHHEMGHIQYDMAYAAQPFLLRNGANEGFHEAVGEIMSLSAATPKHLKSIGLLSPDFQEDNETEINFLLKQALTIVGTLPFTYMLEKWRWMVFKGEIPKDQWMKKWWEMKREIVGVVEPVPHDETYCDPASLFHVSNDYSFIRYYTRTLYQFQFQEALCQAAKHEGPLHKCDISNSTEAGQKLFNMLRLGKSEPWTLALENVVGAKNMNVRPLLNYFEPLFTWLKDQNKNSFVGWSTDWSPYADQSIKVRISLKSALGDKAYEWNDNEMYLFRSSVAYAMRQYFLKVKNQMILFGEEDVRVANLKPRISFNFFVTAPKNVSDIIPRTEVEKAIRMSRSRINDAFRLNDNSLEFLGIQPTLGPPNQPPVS

| Molecule | Ki [1] [µM] | Ki [2] [nM] | Ki [3] [µM] | Ki [4] [nM] | cumulative food consumption ([5]; one hour) | cumulative food consumption ([5]; six hours) | Km [6] [µM] | kcat/Km [6] [M⁻¹ s⁻¹] | Km [7] [µM] | kcat/Km [7] [M⁻¹ s⁻¹] |
| --- | --- | --- | --- | --- | --- | --- | --- | --- | --- | --- |
| CC(C)CC(CS)C(=O)O (centres unmarked) [DQ, 2-Mercaptomethyl-4-methyl-pentanoic acid] | > 50 | > 500 | > 50 | 100 to 500 | – | – | – | – | – | – |
| O=C(O)[C@H](CC#Cc1ccccc1)N[C@@H](CCc1ccccc1)C(=O)O [DS, 2-(1-Carboxy-3-phenyl-propylamino)-5-phenyl-pent-4-ynoic acid] | 10 to 50 | > 500 | > 50 | 100 to 500 | – | – | – | – | – | – |
| CC(C)CC(N[C@@H](Cc1cncn1COCc1ccccc1)C(=O)O)C(=O)O (some centres unmarked) [DX, 2-[2-(3-Benzyloxymethyl-3H-imidazol-4-yl)-1-carboxy-ethylamino]-4-methyl-pentanoic acid] | > 50 | 100 to 500 | > 50 | 100 to 500 | – | – | – | – | – | – |
| CC(C)C[C@H](N[C@H](CCc1ccccc1)C(=O)O)C(=O)O [E, 2-(1-Carboxy-3-phenyl-propylamino)-4-methyl-pentanoic acid] | > 50 | > 500 | > 50 | > 500 | – | – | – | – | – | – |
| O=C(O)[C@H](CC#Cc1ccccn1)N[C@@H](CCc1ccccc1)C(=O)O [EA, 2-(1-Carboxy-3-phenyl-propylamino)-5-pyridin-2-yl-pent-4-ynoic acid] | < 10 | > 500 | > 50 | 100 to 500 | – | – | – | – | – | – |
| O=C(O)[C@H](CC#Cc1ccccn1)N[C@H](CCc1ccccc1)C(=O)O [EB, 2-(1-Carboxy-3-phenyl-propylamino)-5-pyridin-2-yl-pent-4-ynoic acid] | 10 to 50 | > 500 | > 50 | > 500 | – | – | – | – | – | – |
| CC(C)CC(N[C@@H](Cc1cn(Cc2ccc(Cl)cc2)cn1)C(=O)O)C(=O)O (some centres unmarked) [EC, 2-{1-Carboxy-2-[1-(4-chloro-benzyl}-1H-imidazol-4-yl]-ethylamino)4-methyl-pentanoic acid] | < 10 | > 500 | 10 to 50 | > 500 | – | – | – | – | – | – |
| CC(C)CC(N[C@H](CC(=O)O)Cc1ccco1)C(=O)O (some centres unmarked) [EH, 2-(1-Carboxymethyl-2-furan-2-yl-ethylamino)-4-methyl-pentanoic acid] | > 50 | > 500 | > 50 | > 500 | – | – | – | – | – | – |
| CC(C)CC(N[C@@H](Cc1cn(Cc2ccc(C(F)(F)F)cc2)cn1)C(=O)O)C(=O)O (some centres unmarked) [EL, 2-{1-Carboxy-2-[1-(4-trifluoromethyl-benzyl)-1H-imidazol-4-yl}-ethylamino]4-methyl-pentanoic acid] | 10 to 50 | > 500 | > 50 | 100 to 500 | – | – | – | – | – | – |
| COc1ccc(Cn2cnc(C[C@H](NC(CC(C)C)C(=O)O)C(=O)O)c2)cc1 (some centres unmarked) [EM, 2-[1-Carboxy-2-[1-(4-methoxy-benzyl)-1H-imidazol-4-yl]-ethylamino)4-methyl-pentanoic acid] | > 50 | > 500 | > 50 | > 500 | – | – | – | – | – | – |
| CC(C)CC(N[C@@H](Cc1c[nH]cn1)C(=O)NCC(=O)O)C(=O)O (some centres unmarked) [FD, 2-[1-(Carboxymethyl-carbamoyl)-2-(1H-imidazol-4-yl)-ethylamino]4-methyl-pentanoic acid] | > 50 | > 500 | < 10 | > 500 | – | – | – | – | – | – |
| CC(C)CC(N[C@@H](CN(C)c1ccccc1)C(=O)O)C(=O)O (some centres unmarked) [FS, 2-[1-Carboxy-2-(methyl-phenyl-amino)-ethylamino]-4-methyl-pentanoic acid] | 10 to 50 | > 500 | > 50 | < 100 | – | – | – | – | – | – |
| CC(C)CC(N[C@H](CN(C)c1ccccc1)C(=O)O)C(=O)O (some centres unmarked) [FT, 2-[1-Carboxy-2-(methyl-phenyl-amino)-ethylamino]-4-methyl-pentanoic acid] | > 50 | > 500 | > 50 | > 500 | – | – | – | – | – | – |
| CC(C)CC(N[C@@H](Cc1cncn1Cc1ccc(C(F)(F)F)cc1)C(=O)O)C(=O)O (some centres unmarked) [GI, 2-[1-Carboxy-2-[3-(4-trifluoromethyl-benzyl)-imidazol-4-yl]-ethylamino]-4-methyl-pentanoic acid] | 10 to 50 | < 100 | > 50 | < 100 | – | – | – | – | – | – |
| CC(C)CC(N[C@@H](Cc1cncn1Cc1ccc(C(F)(F)F)cc1)C(=O)O)C(=O)O (some centres unmarked) [GJ, 2-[1-Carboxy-2-[3-(4-trifluoromethyl-benzyl)-3H-imidazol-4-yl]-ethylamino]4-methyl-pentanoic acid] | 10 to 50 | > 500 | 10 to 50 | > 500 | – | – | – | – | – | – |
| CC(C)C[C@H](N[C@@H](C(=O)O)c1ccccc1)C(=O)O [R, 2-[(Carboxy-phenyl-methyl)-amino]-4-methyl-pentanoic acid] | > 50 | > 500 | > 50 | > 500 | – | – | – | – | – | – |
| CC(C)C[C@H](N[C@H](CC(=O)O)C(=O)O)C(=O)O [U, 2-(1-Carboxy-3-methyl-butylamino)-succinic acid] | > 50 | > 500 | > 50 | > 500 | – | – | – | – | – | – |
| CC(N)Cc1ccccc1 (centres unmarked) [amphetamine, reference compound] | – | – | – | – | about 0.18±0.05 g | about 3.10±0.03 g | – | – | – | – |
| ACE-2 (Homo sapiens) | – | – | – | – | – | – | 340 | 230000 | 130 | 42000 |
